The target in experiment [1] is T1, Human PKMYT1 (Homo sapiens, UniProt Q99640).
T1 construct: Human PKMYT1 75-362 was cloned as a TEV cleavable 6xHis fusion; 6xHis (TEV cleavable) (cleaved yes); made in house; host or cells: bacterial cells
T1 sequence (Q99640 75-362): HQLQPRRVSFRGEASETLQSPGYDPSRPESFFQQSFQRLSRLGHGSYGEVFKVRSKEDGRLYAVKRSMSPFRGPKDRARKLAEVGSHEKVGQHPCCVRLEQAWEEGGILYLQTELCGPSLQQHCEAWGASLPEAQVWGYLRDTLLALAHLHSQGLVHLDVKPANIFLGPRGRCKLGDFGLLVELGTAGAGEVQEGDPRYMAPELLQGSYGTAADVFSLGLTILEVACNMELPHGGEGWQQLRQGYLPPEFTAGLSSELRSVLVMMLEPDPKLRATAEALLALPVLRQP
As to the kind of experiment: PKMYT1 biochemical ADP-Glo enzymatic assay. To be noted: PKMYT1 kinase domain 15 nM; ADP-Glo; banded values. An outline of the steps: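 Measures inhibition of PKMYT1 autonomous ATP hydrolysis: bacterially expressed human enzyme (75-362, tag cleaved) at 15 nM with 500 µM ATP for 60 min at 26 °C, then ADP-Glo Max detection. IC50s accepted only when replicates agreed within 3-fold and curve r2 exceeded 0.9.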
(In general: ADP-Glo turns the ADP formed in a reaction into a luminescent signal.)

Experiment [2] deals with T2, WEE1 (Homo sapiens, UniProt P30291).
T2 construct: purchased Thermo Fisher PR7373A
T2 sequence (P30291 whole entry): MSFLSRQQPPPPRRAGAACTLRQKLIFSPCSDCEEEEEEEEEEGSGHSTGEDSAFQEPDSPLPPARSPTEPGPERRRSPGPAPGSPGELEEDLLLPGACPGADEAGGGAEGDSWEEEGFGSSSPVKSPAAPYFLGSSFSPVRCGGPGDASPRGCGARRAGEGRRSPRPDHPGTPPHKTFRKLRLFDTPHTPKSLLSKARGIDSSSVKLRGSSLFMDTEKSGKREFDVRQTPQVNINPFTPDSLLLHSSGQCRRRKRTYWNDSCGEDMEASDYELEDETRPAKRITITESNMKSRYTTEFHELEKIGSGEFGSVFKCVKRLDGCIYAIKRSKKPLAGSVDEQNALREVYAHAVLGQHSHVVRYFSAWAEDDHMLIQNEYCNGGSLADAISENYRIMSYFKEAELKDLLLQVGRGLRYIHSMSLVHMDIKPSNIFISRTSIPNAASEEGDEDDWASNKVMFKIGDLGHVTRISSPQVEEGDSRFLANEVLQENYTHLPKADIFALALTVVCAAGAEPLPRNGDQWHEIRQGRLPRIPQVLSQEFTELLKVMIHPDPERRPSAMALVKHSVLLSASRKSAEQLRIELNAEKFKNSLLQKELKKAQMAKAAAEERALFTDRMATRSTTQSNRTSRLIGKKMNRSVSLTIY
As to the kind of experiment: Selectivity versus WEE1 assay (ADP-Glo enzymatic assay). The format is biochemical. To be noted: for IC50: WEE1 15 nM, ADP-Glo, banded values; for PKMYT1 vs. WEE1 selectivity: fold difference in selectivity for PKMYT1 over WEE1, banded. A digest of the protocol:
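Same format as the PKMYT1 assay: WEE1 at 15 nM final with 30 µM ATP, 60 min at 26° C, ADP-Glo luminescence detection, IC50 by dose-response fitting.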

Regarding `Cc1ccc(O)c(C)c1NC(=O)c1cnc(Nc2cccc3scnc23)s1` [BAA-486, 2-(benzo[d]thiazol-4-ylamino)-N-(3-hydroxy-2,6-dimethylphenyl)thiazole-5-carboxamide], the results for the IC50 in experiment [1] and in experiment [2] were 50 to 1000 nM and over 11000 nM, respectively. In experiment [2], the “PKMYT1 vs. WEE1 selectivity” value was “X (100-<1000 fold)”.

In experiment [1], `Cc1ccc(O)c(C)c1NC(=O)c1cnc(Nc2cccc3cccnc23)s1` [BAA-487, N-(3-hydroxy-2,6-dimethylphenyl)-2-(quinolin-8-ylamino) thiazole-5-carboxamide] displayed an IC50 of 50 to 1000 nM. In addition, in experiment [2], the IC50 was over 11000 nM and the “PKMYT1 vs. WEE1 selectivity” value is “X (100-<1000 fold)”.

Turning to `Cc1ccc(O)c(C)c1NC(=O)c1cnc(Nc2cc(Br)n(C)n2)s1` [BAA-494, 2-((5-Bromo-1-methyl-1H-pyrazol-3-yl)amino)-N-(3-hydroxy-2,6-dimethylphenyl)thiazole-5-carboxamide], in experiment [1], the IC50 lay in the range of 50 to 1000 nM. Besides, in experiment [2], the 50% inhibitory concentration (IC50) was over 11000 nM and the “PKMYT1 vs. WEE1 selectivity” value is recorded as “X (100-<1000 fold)”.

`Cc1ccc(O)c(C)c1NC(=O)c1cnc(Nc2nn(C)cc2C#N)s1` [BAA-496, 2-((4-cyano-1-methyl-1H-pyrazol-3-yl)amino)-N-(3-hydroxy-2,6-dimethylphenyl)thiazole-5-carboxamide] returned an IC50 in experiment [1] of under 50 nM. Also, in experiment [2], the IC50 is over 11000 nM and the “PKMYT1 vs. WEE1 selectivity” value is “Y (1000-5000 fold)”.

For `Cc1c(O)ccc(Br)c1NC(=O)c1cnc(Nc2ccn(C)n2)s1` [BAA-498, N-(6-bromo-3-hydroxy-2-methylphenyl)-2-((1-methyl-1H-pyrazol-3-yl)amino)thiazole-5-carboxamide], the IC50 fell in the range of 50 to 1000 nM in experiment [1] and 1000 to 11000 nM in experiment [2]. Besides, the “PKMYT1 vs. WEE1 selectivity” value in experiment [2] was “W (10-<100 fold)”.

In turn, `Cc1cn(C(C)C(=O)N2CCN(C)CC2)nc1Nc1ncc(C(=O)Nc2c(C)ccc(O)c2C)s1` (stereo not drawn) [BAA-500, N-(3-hydroxy-2,6-dimethylphenyl)-2-((4-methyl-1-(1-(4-methylpiperazin-1-yl)-1-oxopropan-2-yl)-1H-pyrazol-3-yl)amino)thiazole-5-carboxamide] showed a half-maximal inhibitory concentration (IC50) in experiment [1] of under 50 nM. In addition, in experiment [2], the IC50 was over 11000 nM and the “PKMYT1 vs. WEE1 selectivity” value is given as “X (100-<1000 fold)”.

Compound `Cc1cn(CCN(C)C)nc1Nc1ncc(C(=O)Nc2c(C)ccc(O)c2C)s1` [BAA-501, 2-((1-(2-(dimethylamino)ethyl)-4-methyl-1H-pyrazol-3-yl)amino)-N-(3-hydroxy-2,6-dimethylphenyl)thiazole-5-carboxamide] yielded an IC50 in experiment [1] of 50 to 1000 nM. Further, in experiment [2], the IC50 is over 11000 nM and the “PKMYT1 vs. WEE1 selectivity” value is reported as “W (10-<100 fold)”.

Consider `CCOc1ccc(Nc2ncc(C(=O)Nc3c(C)ccc(O)c3C)s2)cc1` [BAA-503, 2-((4-ethoxyphenyl)amino)-N-(3-hydroxy-2,6-dimethylphenyl)thiazole-5-carboxamide], for which the IC50 was in the range of 50 to 1000 nM in experiment [1] and 1000 to 11000 nM in experiment [2]. For the same compound, in experiment [2], the “PKMYT1 vs. WEE1 selectivity” value is “W (10-<100 fold)”.

As for `Cc1ccc(O)c(C)c1NC(=O)c1cnc(Nc2cc(C#N)n(C)n2)s1` [BAA-505, 2-((5-cyano-1-methyl-1H-pyrazol-3-yl)amino)-N-(3-hydroxy-2,6-dimethylphenyl)thiazole-5-carboxamide], the IC50 in experiment [1] lay in the range of 50 to 1000 nM; in experiment [2], 1000 to 11000 nM. In addition, the “PKMYT1 vs. WEE1 selectivity” value in experiment [2] is listed as “W (10-<100 fold)”.

Regarding `CCC(C(=O)N(C)C)n1ccc(Nc2ncc(C(=O)Nc3c(C)ccc(O)c3C)s2)n1` (stereo not drawn) [BAA-507, 2-((1-(1-(dimethylamino)-1-oxobutan-2-yl)-1H-pyrazol-3-yl)amino)-N-(3-hydroxy-2,6-dimethylphenyl)thiazole-5-carboxamide], in experiment [1], the IC50 was under 50 nM. In experiment [2], the IC50 was over 11000 nM and the “PKMYT1 vs. WEE1 selectivity” value was “X (100-<1000 fold)”.

A word on the IC50: it is the concentration that gives 50% inhibition. A lower IC50 goes with greater potency.

These data come from patent publication US20260297042A1, “BIARYLAMIDE DERIVATIVES AND THEIR USE AS PKMYT1 INHIBITORS” (CANCER RESEARCH TECHNOLOGY LIMITED, priority 2023, published 2026).
